Assay results published in a melting point compilation (Tetko et al.; mined from patent text by program, amines drawn as free bases though some values may be those of a salt).

melting point | Compound
107 to 109 °C | CS(=O)(=O)Nc1ccc(CNC(=O)c2cccnc2Oc2ccc(F)cc2)cc1
178 to 179 °C | CC(C)(C)c1cc(NC(=O)Nc2ccc(Oc3ccncc3)cc2)[nH]n1
171 °C | O=C(Oc1cc2c(c3ccccc13)Nc1ccccc1S2)c1ccccc1
139 to 141 °C | Cc1[nH]c2ccccc2c1C(C)c1cccnc1 (configuration not stated)
87 to 89 °C | Cc1cn(C2(C(=O)N(C)C)CCC2)nc1-c1ccccc1
104 to 105 °C | CCOP(=O)(OCC)C(CC(C(=O)Nc1ccccc1)C(=O)c1ccccc1)P(=O)(OCC)OCC (configuration not stated)
188 to 189 °C | CN1CCN(c2nc3c(cc2F)c(=O)n(OCc2ccccc2)c(=O)n3C2CC2)CC1
167 to 169 °C | Cc1cc(C(O)(C(F)(F)F)C(F)(F)F)cc(C)c1OCCN
203 to 205 °C | CCN(CC)C(=O)c1cc(C(C)(C)C)c(OC(=O)c2cc(C(C)(C)C)c(O)c(C(C)(C)C)c2)c(C(C)(C)C)c1
225 to 230 °C | O=C(Nc1ccc(C(CC2CCCC2)C(=O)Nc2nccs2)cc1)c1ccncc1 (configuration not stated)
118 to 119 °C | COc1cc(OC)nc(C(C(N)=O)c2cccc(Cl)c2)n1 (configuration not stated)
119 to 120 °C | O=C(OCc1ccc(Cl)cc1)C(=C1NCCCS1)[N+](=O)[O-]
85 to 88 °C | Cc1c(C)c2c(c(C)c1O)CCC(C)(C)O2
108 to 110 °C | CCOc1cccc2cc(C(=O)c3ccc(Cl)cc3)oc12
100 to 102 °C | N#CC1=C(Nc2ccc(F)cc2)CCC1
144 to 145 °C | Oc1cccc(CCc2nc(-c3ccsc3)c(-c3ccsc3)o2)c1
121 to 123 °C | CC(C)(C(=O)O)C(=O)O
116 to 117 °C | CC(C)(NC=O)c1ccc(C(F)(F)C(F)(F)c2ccccc2)cc1
84.5 to 87 °C | COC(=O)c1ccc(C(C)C(C)NCC(O)c2ccc(O)c(CO)c2)cc1 (configuration not stated)
115 to 117 °C | CC(C)(C)c1ccc2c(c1)C(C(=O)Nc1c(Cl)cccc1Cl)c1ccccc1CO2 (configuration not stated)
166 to 167 °C | COn1c(C#N)c(C#N)c(Br)c1-c1ccc(Cl)cc1
185 to 186 °C | COc1cc2[nH]c(S(=O)Cc3nccc(N4CCOCC4)c3F)nc2cc1C (configuration not stated)
182 to 184 °C | c1ccc(-c2nn3c(c2-c2nc4ncccc4o2)CCC3)nc1
209 to 212 °C | O=C1COc2cc(NC(=O)C(=O)N3CCC(Cc4ccc(F)cc4)CC3)ccc2N1

melting point | Compound
130 to 132 °C | CC(C)(C)OC(=O)CN1C(=O)c2ccccc2S1(=O)=O
200 to 202 °C | CN(C)c1cc(CC(C#N)=CNc2ccccc2)cc(N(C)C)c1N1CCCCC1
196 to 197 °C | CN(Cc1cc(C(F)(F)F)cc(C(F)(F)F)c1)C(=O)c1c(-c2ccc(F)cc2)c2ccsc2c(=O)n1C
124 to 125 °C | N#CC(=NO)c1cccc(Oc2ccccc2)c1
167 to 169 °C | N#Cc1ncn2c1N(C(=O)CN1CCN(Cc3ccccc3)CC1)CC=C2c1cccc(C(F)(F)F)c1
265 °C | Cc1cc(=O)c2cc(N)ccc2s1
114 to 116 °C | CC(=O)N1C(C)(C)CC(Oc2nc(Cl)nc(N3C(C)(C)CCCC3(C)C)n2)CC1(C)C
44.5 to 45.5 °C | CC1(C)C(=O)ON(Cc2ccccc2Br)C1=O
94 to 96 °C | CCCCc1c(C(=O)OCC)cc(Oc2nnnn2-c2ccccc2)c2ccc(OC)cc12
194 to 196 °C | COc1ccc2c(c1)Sc1cc(OC)ccc1N2
184 to 185 °C | CC(=O)C1CCC2C3CCC4CC(O)C(N5CCSC(C)(C)C5)CC4(C)C3CCC12C (configuration not stated)
70 to 78 °C | C=CCSCCON=C(C(=O)O)c1csc(NC=O)n1
234 to 236 °C | NC(=O)c1c(N)n[nH]c1N1CCN(Cc2ccccc2)CC1
139 to 142 °C | N#Cc1ccc(Cn2cncn2)c(-c2ccc(OS(N)(=O)=O)c(Cl)c2)c1
55.5 to 56.5 °C | CCC(=O)Oc1ccc(CC(=O)O)cc1C(C)(C)C
108 °C | CCCCCCCCCCCCCCCc1cc(=O)c2c(O)cc(O)cc2o1
269 to 271 °C | O=C(O)c1cccc2c1C(=O)c1ccccc1S2(=O)=O
227 to 228 °C | NC(=O)c1c(CN2CCC(c3ccccc3)(c3ccccc3)CC2)ncn1Cc1ccc(Cl)cc1
102 to 105 °C | COCOC1CCC2(C)C(=CCC3C2CCC2(C)C(CO)CCC32)C1 (configuration not stated)
129 to 132 °C | COC(=O)OCC(CO)CCn1cnc2cnc(N)nc21 (configuration not stated)
138 to 140 °C | CCOC(=O)C1N=c2sccc2=CN1N (configuration not stated)
212 to 214 °C | O=C(O)Cn1c(=O)n(S(=O)(=O)c2ccccc2)c(=O)c2ccc(Cl)cc21
207 to 209 °C | CCCCCCNC1=NS(=O)(=O)c2sc(Cl)cc2N1
160 to 161 °C | COc1cccc(Oc2c(NS(=O)(=O)c3ccc(C(C)(C)C)cc3)ncnc2OCCOc2ncc(-c3ccccc3)cn2)c1

melting point | Compound
198 to 200 °C | CCn1ncc2c1ncc1c(SC)nc3ncnn3c12
172 to 174 °C | CCCOCCc1ccc(-c2ccc3c(c2)C=C(C(=O)Nc2ccc(CN(C)C4CCOCC4)cc2)CCS3(=O)=O)c(F)c1
163 to 164 °C | NS(=O)(=O)c1ccc2c(c1)CCO2
197 to 198 °C | C=C1CC2C(=CCC3(C)C2CC(C)C3(OC(C)=O)C(C)=O)C2(C)CCC(=O)C=C12 (configuration not stated)
278 °C | Clc1nc(-n2cnc(-c3ccccc3)c2-c2ccccc2)c2[nH]cnc2n1
161 to 168 °C | Oc1ccc(CCNc2ncnc3scnc23)cc1
205 to 207 °C | O=C1CN(C(=O)CN2CC(c3ccc(Cl)cc3)CC2=O)CCN1 (configuration not stated)
59 to 61 °C | CCOC(=O)c1nc2c(C)nn(CC)c2nc1OCCC(C)C
170 to 172 °C | COc1cccc2c(=O)c3cc(F)ccc3oc12
196 to 198 °C | CC1(C)OC(=O)Nc2ccc(/C=C/C(N)=O)cc21
266 to 269 °C | NC(=O)c1cc([N+](=O)[O-])ccc1SSc1ccc([N+](=O)[O-])cc1C(N)=O
95 to 99 °C | O=C(O)C(CC1CCCC1)c1cccc([N+](=O)[O-])c1 (configuration not stated)
118 °C | O=S(=O)(c1ccc(Cl)cc1)N1CCCC1c1ccc(F)cc1 (racemic)
56 to 58 °C | CCCCCCCCCCCCCCOc1ccc(C(=O)OC)cc1
218 to 220 °C | C(=Cc1ccc(-c2nc(-c3ccc(C=Cc4ccccc4)cc3)n(-c3ccccc3)n2)cc1)c1ccccc1
75 to 76 °C | OCCCCc1ccc(OCc2coc(/C=C/c3ccc(F)cc3F)n2)cc1
174 °C | CN(C)CCOc1ccc(CNC(=O)c2ccc(S(N)(=O)=O)cc2)cc1
123 to 125 °C | CCOC(=O)C(OCC)(OCC)C(=O)c1cccc2snnc12
142 to 143 °C | COc1ccc(C(=O)Cc2c(Cl)cncc2Cl)c2c1OCCCCO2
221 °C | N#Cc1ncn2c(C(F)(F)F)cc(-c3cccc(Cl)c3)nc12
138 to 140 °C | Cc1noc2cc(N3CCOCC3)ccc12
94 to 96 °C | Fc1cc2c(cc1Cl)C(Cl)Cc1ccccc1S2 (configuration not stated)
137 to 138 °C | CCCCOc1c(CNC(=O)OC(C)(C)C)n(CC(C)C)c(=O)c2ccc(NC(=O)OCC3c4ccccc4-c4ccccc43)cc12
44 °C | OCCC(CCO)c1ccccn1

melting point | Compound
113 to 115 °C | CNC(=C[N+](=O)[O-])NCCSCc1cc(CN(C)C)ccn1
188 to 190 °C | COC(=O)C1CCc2cc(C(=O)c3ccccc3Cl)c(O)cc21 (configuration not stated)
175 to 180 °C | Cc1c(C)c2c(c(C)c1O)CCC(C)(CCOc1ccc(CC3SC(=N)NC3=O)cc1)O2 (configuration not stated)
122 °C | NC(=O)N1C(=O)C(=C(OCOC(=O)COCC(=O)OCc2ccccc2)c2cccs2)c2cc(F)c(Cl)cc21
48 to 52 °C | O=C(CC1C(=O)CCc2ccccc21)c1ccccc1 (configuration not stated)
257 to 258 °C | NS(=O)(=O)c1ccc(NCC(=O)Nc2ccccc2)cc1
250 to 255 °C | Cn1c(=O)c(-c2ccccc2)cc2cnc(N)nc21
31 to 32 °C | O=C(CCCCCOc1ccccc1OCc1ccccc1)C(F)(F)F
71 to 72 °C | Cc1cc(OCC(=O)c2ccc(C(C)C)cc2)c(C)c(C)c1Br
241 to 242 °C | N#Cc1c(N2CCCCC2)[nH]c2cccnc12
220 °C | CN1C(=O)N(c2cc(Cl)cc(Cl)c2)C(=O)[C@]12CN(CC(=O)O)C[C@H]2c1ccc(C#N)cc1 (relative stereo)
260 to 261 °C | COc1c(/C=C/c2ccc(NS(C)(=O)=O)cc2)cc(N2CCC(=O)NC2=O)cc1C(C)(C)C
94 to 97 °C | CC1(C)COC(=O)N1c1nc(-c2ccccc2)cs1
95 to 97 °C | COC(=O)CCCc1cc2cc(Cl)ccc2n1S(=O)(=O)c1ccc(C(C)C)cc1
194 to 196 °C | CC(C1OCCO1)N(C)C(=O)Nc1nnc(S(=O)(=O)N(C)C)s1 (configuration not stated)
191 to 192 °C | CC(C)NC(=O)N1CCC(Cc2ccc(NC3=NCCN3)cc2)CC1
85.5 to 89 °C | COCc1cccc2c1ccn2S(=O)(=O)c1ccc(C)cc1
35 to 36 °C | CCSC(=O)CCS(=O)(=O)CC
122 to 129 °C | O=C(Cn1ccnc1)c1ccc(Cl)cn1
> 300 °C | O=C1c2ccccc2-c2[nH]nc(-c3ccncc3)c21
184 to 186 °C | CSc1nc(=O)cc(C)n1C1CCCCC1
182 to 185 °C | Cc1n[nH]c(C)c1Oc1cc(C#N)cc(C#N)c1
137 °C | CCCCC(=O)N(Cc1ccc(OC(F)(F)F)c(Cl)c1)c1cc(F)cc(-c2nnn[nH]2)c1
132 to 134 °C | CCc1cccc(C)c1CNc1cc(Br)cc2c1ncn2C

Compound | melting point
O=C1CN2CCC1(Cc1ccccc1)CC2 | 111 °C
CC(C)(C)C(=O)OC1CCC2(C)C(=CC(O)C3C2CCC2(C)C(=O)CC(OC(=O)C(C)(C)C)C32)C1 (configuration not stated) | 195 to 197 °C
NNC1=Nc2ccc(Br)cc2C(c2ccccn2)=NC1 | 218 to 228 °C
ClCc1nc(Cl)c2ccsc2n1 | 66 to 68 °C
N#Cc1ccc(N2C(=O)C3C(F)CCN3C2=O)c2ccccc12 (configuration not stated) | 228 to 230 °C
CCCc1c(C(=O)C(C)C)c2ccc(C(=O)OC)cc2n1Cc1ccccc1C#N | 159 to 161 °C
